According to ChEMBL document CHEMBL3994622, “Design and synthesis of new RAF kinase-inhibiting antiproliferative quinoline derivatives. Part 2: Diarylurea derivatives” (Eur J Med Chem, 2017):

Assays:
Assay type in all cases: functional
[1] = tested on: UACC-62; assay: Growth inhibition of human UACC62 cells assessed as cell growth at 10 uM incubated for 48 hrs by sulforhodamine B assay relative to control; conditions: UACC-62, 48 h, read-out: Activity
[2] = tested on: SF-295; assay: Growth inhibition of human SF295 cells assessed as cell growth at 10 uM incubated for 48 hrs by sulforhodamine B assay relative to control; conditions: SF-295, 48 h, read-out: Activity
[3] = tested on: SK-MEL-2; assay: Growth inhibition of human SK-MEL-2 cells assessed as cell growth at 10 uM incubated for 48 hrs by sulforhodamine B assay relative to control; conditions: SK-MEL-2, 48 h, read-out: Activity
[4] = tested on: A549; assay: Growth inhibition of human A549/ATCC cells assessed as cell growth at 10 uM incubated for 48 hrs by sulforhodamine B assay relative to control; conditions: A549, 48 h, read-out: Activity
[5] = tested on: DU-145; assay: Growth inhibition of human DU145 cells assessed as cell growth at 10 uM incubated for 48 hrs by sulforhodamine B assay relative to control; conditions: DU-145, 48 h, read-out: Activity
[6] = tested on: M14; assay: Growth inhibition of human M14 cells assessed as cell growth at 10 uM incubated for 48 hrs by sulforhodamine B assay relative to control; conditions: M14, 48 h, read-out: Activity
[7] = tested on: MDA-MB-231; assay: Growth inhibition of human MDA-MB-231 cells assessed as cell growth at 10 uM incubated for 48 hrs by sulforhodamine B assay relative to control; conditions: MDA-MB-231, 48 h, read-out: Activity
[8] = tested on: A498; assay: Growth inhibition of human A498 cells assessed as cell growth at 10 uM incubated for 48 hrs by sulforhodamine B assay relative to control; conditions: A498, 48 h, read-out: Activity
[9] = tested on: KM12; assay: Growth inhibition of human KM12 cells assessed as cell growth at 10 uM incubated for 48 hrs by sulforhodamine B assay relative to control; conditions: KM12, 48 h, read-out: Activity
[10] = tested on: LOX IMVI; assay: Growth inhibition of human LOXIMVI cells assessed as cell growth at 10 uM incubated for 48 hrs by sulforhodamine B assay relative to control; conditions: read-out: Activity
[11] = tested on: HCT-15; assay: Growth inhibition of human HCT15 cells assessed as cell growth at 10 uM incubated for 48 hrs by sulforhodamine B assay relative to control; conditions: HCT-15, 48 h, read-out: Activity
[12] = tested on: RXF 393; assay: Growth inhibition of human RXF393 cells assessed as cell growth at 10 uM incubated for 48 hrs by sulforhodamine B assay relative to control; conditions: RXF 393, 48 h, read-out: Activity
[13] = tested on: SF-268; assay: Growth inhibition of human SF268 cells assessed as cell growth at 10 uM incubated for 48 hrs by sulforhodamine B assay relative to control; conditions: SF-268, 48 h, read-out: Activity
[14] = tested on: 786-0; assay: Growth inhibition of human 786-0 cells assessed as cell growth at 10 uM incubated for 48 hrs by sulforhodamine B assay relative to control; conditions: 786-0, 48 h, read-out: Activity
[15] = tested on: SNB-19; assay: Growth inhibition of human SNB19 cells assessed as cell growth at 10 uM incubated for 48 hrs by sulforhodamine B assay relative to control; conditions: SNB-19, 48 h, read-out: Activity
[16] = tested on: SW-620; assay: Growth inhibition of human SW620 cells assessed as cell growth at 10 uM incubated for 48 hrs by sulforhodamine B assay relative to control; conditions: SW-620, 48 h, read-out: Activity
[17] = tested on: COLO 205; assay: Growth inhibition of human COLO205 cells assessed as cell growth at 10 uM incubated for 48 hrs by sulforhodamine B assay relative to control; conditions: COLO 205, 48 h, read-out: Activity
[18] = tested on: EKVX; assay: Growth inhibition of human EKVX cells assessed as cell growth at 10 uM incubated for 48 hrs by sulforhodamine B assay relative to control; conditions: read-out: Activity
[19] = tested on: U-251; assay: Growth inhibition of human U251 cells assessed as cell growth at 10 uM incubated for 48 hrs by sulforhodamine B assay relative to control; conditions: U-251, 48 h, read-out: Activity
[20] = tested on: MOLT-4; assay: Growth inhibition of human MOLT4 cells assessed as cell growth at 10 uM incubated for 48 hrs by sulforhodamine B assay relative to control; conditions: MOLT-4, 48 h, read-out: Activity
[21] = tested on: SNB-75; assay: Growth inhibition of human SNB75 cells assessed as cell growth at 10 uM incubated for 48 hrs by sulforhodamine B assay relative to control; conditions: SNB-75, 48 h, read-out: Activity
[22] = tested on: HOP-92; assay: Growth inhibition of human HOP92 cells assessed as cell growth at 10 uM incubated for 48 hrs by sulforhodamine B assay relative to control; conditions: HOP-92, 48 h, read-out: Activity
[23] = tested on: CCRF-CEM; assay: Growth inhibition of human CCRF-CEM cells assessed as cell growth at 10 uM incubated for 48 hrs by sulforhodamine B assay relative to control; conditions: read-out: Activity
[24] = tested on: NCI/ADR-RES; assay: Growth inhibition of human NCI/ADR-RES cells assessed as cell growth at 10 uM incubated for 48 hrs by sulforhodamine B assay relative to control; conditions: read-out: Activity
[25] = tested on: RPMI-8226; assay: Growth inhibition of human RPMI8226 cells assessed as cell growth at 10 uM incubated for 48 hrs by sulforhodamine B assay relative to control; conditions: RPMI-8226, 48 h, read-out: Activity

Structure (SMILES) | growth at 10 µM [1] | growth at 10 µM [2] | growth at 10 µM [3] | growth at 10 µM [4] | growth at 10 µM [5] | growth at 10 µM [6] | growth at 10 µM [7] | growth at 10 µM [8] | growth at 10 µM [9] | growth at 10 µM [10] | growth at 10 µM [11] | growth at 10 µM [12] | growth at 10 µM [13] | growth at 10 µM [14] | growth at 10 µM [15] | growth at 10 µM [16] | growth at 10 µM [17] | growth at 10 µM [18] | growth at 10 µM [19] | growth at 10 µM [20] | other results
COc1cc2cc(Sc3ccc(NC(=O)Nc4ccc(Cl)c(Cl)c4)cc3)c(C)nc2cc1OC | 69.5% | 56.5% | 72.6% | 59.5% | 75.5% | 81.3% | 87.9% | 73% | 74.5% | 94.7% | 75.9% | 84.4% | 72.6% | 73.4% | 84.9% | 89.9% | 87.8% | 69.4% | 70% | 38.1% | growth at 10 µM [21]: 86.4%; growth at 10 µM [22]: 71.2%; growth at 10 µM [23]: 50.7%; growth at 10 µM [24]: 86.2%; growth at 10 µM [25]: 54.5%
COc1cc2cc(Oc3ccc(NC(=O)Nc4ccccc4)cc3)c(C)nc2cc1OC | 88.4% | 54% | 78.8% | 58.4% | 88.7% | 93.7% | 80% | 54% | 70.3% | 82.1% | 64.1% | 76.7% | 88.1% | 94.8% | 94.8% | 105% | 85.7% | 63.4% | 48% | 37.9% | growth at 10 µM [21]: 75.8%; growth at 10 µM [23]: 55.2%; growth at 10 µM [24]: 84.3%; growth at 10 µM [25]: 38.8%
COc1cc2cc(Oc3ccc(NC(=O)Nc4ccc(C(F)(F)F)cc4)cc3)c(C)nc2cc1OC | 69.2% | 56% | 76.7% | 32.4% | 71.4% | 95.2% | 80.9% | 90.5% | 64.4% | 56.4% | 75.4% | 6.29% | 79.3% | 74.9% | 93.5% | 75.3% | 40.4% | 75.7% | 15% | 61.9% | growth at 10 µM [21]: 41%; growth at 10 µM [22]: 56.3%; growth at 10 µM [23]: 68.5%; growth at 10 µM [24]: 64.1%; growth at 10 µM [25]: 52.7%
